Experimental data from ChEMBL document CHEMBL5291721, “A preclinical secondary pharmacology resource illuminates target-adverse drug reaction associations of marketed drugs” (Nat Commun, 2023).

Columns and labels:
Progesterone receptor = biological target: T1, Progesterone receptor (Homo sapiens, UniProt P06401); format: functional
T1 sequence (P06401 whole entry): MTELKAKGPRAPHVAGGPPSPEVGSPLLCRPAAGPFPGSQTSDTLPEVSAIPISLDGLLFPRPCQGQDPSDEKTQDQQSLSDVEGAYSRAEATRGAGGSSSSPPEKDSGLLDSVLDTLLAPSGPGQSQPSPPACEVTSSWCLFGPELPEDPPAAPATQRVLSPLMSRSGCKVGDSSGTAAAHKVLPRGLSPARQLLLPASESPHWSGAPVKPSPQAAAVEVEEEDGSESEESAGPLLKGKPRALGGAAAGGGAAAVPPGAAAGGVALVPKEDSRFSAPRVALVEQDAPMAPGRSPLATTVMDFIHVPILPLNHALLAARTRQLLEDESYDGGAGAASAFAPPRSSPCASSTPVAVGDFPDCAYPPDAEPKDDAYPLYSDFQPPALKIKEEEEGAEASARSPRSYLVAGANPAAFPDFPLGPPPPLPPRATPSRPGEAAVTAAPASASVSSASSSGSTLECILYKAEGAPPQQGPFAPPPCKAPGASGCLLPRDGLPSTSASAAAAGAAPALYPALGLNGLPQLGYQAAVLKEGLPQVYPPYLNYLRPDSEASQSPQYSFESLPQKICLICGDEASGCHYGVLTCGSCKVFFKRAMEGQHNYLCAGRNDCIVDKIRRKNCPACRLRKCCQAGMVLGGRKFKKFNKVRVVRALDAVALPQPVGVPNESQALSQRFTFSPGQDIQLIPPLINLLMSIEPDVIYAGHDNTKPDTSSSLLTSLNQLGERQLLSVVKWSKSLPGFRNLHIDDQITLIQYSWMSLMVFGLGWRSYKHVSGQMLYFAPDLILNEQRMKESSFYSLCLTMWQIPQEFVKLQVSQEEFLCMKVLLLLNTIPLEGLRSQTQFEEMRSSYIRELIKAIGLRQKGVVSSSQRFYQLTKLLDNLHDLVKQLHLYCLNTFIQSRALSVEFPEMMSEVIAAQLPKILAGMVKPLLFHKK

[1] = biological target: Beta-3 adrenergic receptor (Homo sapiens, UniProt P13945)
[2] = biological target: 5-hydroxytryptamine receptor 2B (Homo sapiens, UniProt P41595)
D(1A) dopamine receptor [3] = biological target: T2, D(1A) dopamine receptor (Homo sapiens, UniProt P21728)
[4] = biological target: T3, Alpha-1A adrenergic receptor (Homo sapiens, UniProt P35348)
T3 sequence (P35348 whole entry): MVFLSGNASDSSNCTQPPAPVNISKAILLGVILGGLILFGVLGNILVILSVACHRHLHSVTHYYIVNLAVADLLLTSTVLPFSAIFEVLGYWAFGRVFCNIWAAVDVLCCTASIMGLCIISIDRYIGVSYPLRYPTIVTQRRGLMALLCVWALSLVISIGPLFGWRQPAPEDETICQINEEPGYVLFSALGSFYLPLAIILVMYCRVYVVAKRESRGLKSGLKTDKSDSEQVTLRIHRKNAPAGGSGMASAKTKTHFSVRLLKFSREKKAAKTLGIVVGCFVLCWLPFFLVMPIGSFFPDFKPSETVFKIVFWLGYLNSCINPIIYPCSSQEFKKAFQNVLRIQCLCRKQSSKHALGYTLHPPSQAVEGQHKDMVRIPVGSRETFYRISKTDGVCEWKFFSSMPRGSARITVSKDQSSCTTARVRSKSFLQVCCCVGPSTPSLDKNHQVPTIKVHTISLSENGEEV

[5] = biological target: 5-hydroxytryptamine receptor 6 (Homo sapiens, UniProt P50406)
[6] = biological target: 5-hydroxytryptamine receptor 7 (Homo sapiens, UniProt P34969)
[7] = biological target: T3, Alpha-1A adrenergic receptor; remark: listed apart in the source
[8] = biological target: 5-hydroxytryptamine receptor 2A (Homo sapiens, UniProt P28223)
[9] = biological target: T4, Muscarinic acetylcholine receptor M2 (Homo sapiens, UniProt P08172)
T4 sequence (P08172 whole entry): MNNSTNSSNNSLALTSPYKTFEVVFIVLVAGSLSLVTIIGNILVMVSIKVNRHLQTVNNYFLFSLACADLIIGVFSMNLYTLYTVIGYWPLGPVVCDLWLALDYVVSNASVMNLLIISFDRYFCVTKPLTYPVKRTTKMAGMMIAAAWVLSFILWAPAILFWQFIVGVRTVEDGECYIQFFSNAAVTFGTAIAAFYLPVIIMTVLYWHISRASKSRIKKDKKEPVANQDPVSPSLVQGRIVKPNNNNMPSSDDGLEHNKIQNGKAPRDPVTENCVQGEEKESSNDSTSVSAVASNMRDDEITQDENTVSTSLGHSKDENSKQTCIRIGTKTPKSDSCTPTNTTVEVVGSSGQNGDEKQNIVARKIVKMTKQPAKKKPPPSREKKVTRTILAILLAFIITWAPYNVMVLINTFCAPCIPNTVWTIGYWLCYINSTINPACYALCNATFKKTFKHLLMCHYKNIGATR

[10] = biological target: Gamma-aminobutyric acid receptor subunit alpha-1/alpha-2/beta-2/gamma-2 (Homo sapiens, UniProt P14867+P18507+P47869+P47870); format: functional, cell-based
[11] = biological target: T5, Muscarinic acetylcholine receptor M1 (Homo sapiens, UniProt P11229)
T5 sequence (P11229 whole entry): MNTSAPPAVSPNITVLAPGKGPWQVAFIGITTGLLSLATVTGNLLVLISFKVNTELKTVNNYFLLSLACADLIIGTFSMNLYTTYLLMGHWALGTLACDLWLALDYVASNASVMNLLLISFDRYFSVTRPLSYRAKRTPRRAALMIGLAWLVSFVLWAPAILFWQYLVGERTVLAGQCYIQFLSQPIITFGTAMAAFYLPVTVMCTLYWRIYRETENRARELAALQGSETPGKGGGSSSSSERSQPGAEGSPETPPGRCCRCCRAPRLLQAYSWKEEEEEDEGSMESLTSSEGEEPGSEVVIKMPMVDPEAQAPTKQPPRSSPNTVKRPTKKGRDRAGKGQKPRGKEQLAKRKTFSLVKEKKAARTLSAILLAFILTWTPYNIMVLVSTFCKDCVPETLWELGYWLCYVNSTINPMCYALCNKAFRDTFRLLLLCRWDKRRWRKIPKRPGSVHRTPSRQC

D(1A) dopamine receptor [12] = biological target: T2, D(1A) dopamine receptor; remark: listed apart in the source
Histamine H1 receptor [13] = biological target: T6, Histamine H1 receptor (Homo sapiens, UniProt P35367); format: functional, cell-based
Histamine H1 receptor [14] = biological target: T6, Histamine H1 receptor; format: functional, cell-based; remark: listed apart in the source
Also: assay procedure not described here.

Sequence of 5-hydroxytryptamine receptor 6 (P50406 whole entry): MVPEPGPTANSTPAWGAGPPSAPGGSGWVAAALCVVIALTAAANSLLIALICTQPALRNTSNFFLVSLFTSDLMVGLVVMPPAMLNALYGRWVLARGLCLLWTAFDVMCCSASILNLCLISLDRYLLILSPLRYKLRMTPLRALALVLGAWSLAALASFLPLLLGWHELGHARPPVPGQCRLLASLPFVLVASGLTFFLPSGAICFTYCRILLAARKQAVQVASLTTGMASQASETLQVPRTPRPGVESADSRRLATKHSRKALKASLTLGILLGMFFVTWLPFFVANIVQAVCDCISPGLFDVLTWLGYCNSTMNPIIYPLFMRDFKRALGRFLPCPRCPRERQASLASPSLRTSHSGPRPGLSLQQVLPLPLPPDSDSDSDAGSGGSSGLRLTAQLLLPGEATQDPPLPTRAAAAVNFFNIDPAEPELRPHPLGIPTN
Sequence of 5-hydroxytryptamine receptor 7 (P34969 whole entry): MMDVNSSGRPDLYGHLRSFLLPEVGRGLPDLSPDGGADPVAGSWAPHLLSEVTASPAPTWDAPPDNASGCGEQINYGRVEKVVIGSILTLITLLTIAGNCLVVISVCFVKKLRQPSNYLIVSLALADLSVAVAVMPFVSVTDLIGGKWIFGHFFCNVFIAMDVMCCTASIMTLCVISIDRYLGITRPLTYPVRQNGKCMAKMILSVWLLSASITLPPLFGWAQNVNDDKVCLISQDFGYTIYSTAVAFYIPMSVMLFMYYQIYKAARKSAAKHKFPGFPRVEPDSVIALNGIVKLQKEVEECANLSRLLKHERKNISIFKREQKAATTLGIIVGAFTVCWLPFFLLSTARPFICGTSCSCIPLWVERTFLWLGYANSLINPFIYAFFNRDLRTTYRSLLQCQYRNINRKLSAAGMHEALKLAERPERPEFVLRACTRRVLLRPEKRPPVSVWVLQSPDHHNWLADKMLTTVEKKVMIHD
Sequence of Beta-3 adrenergic receptor (P13945 whole entry): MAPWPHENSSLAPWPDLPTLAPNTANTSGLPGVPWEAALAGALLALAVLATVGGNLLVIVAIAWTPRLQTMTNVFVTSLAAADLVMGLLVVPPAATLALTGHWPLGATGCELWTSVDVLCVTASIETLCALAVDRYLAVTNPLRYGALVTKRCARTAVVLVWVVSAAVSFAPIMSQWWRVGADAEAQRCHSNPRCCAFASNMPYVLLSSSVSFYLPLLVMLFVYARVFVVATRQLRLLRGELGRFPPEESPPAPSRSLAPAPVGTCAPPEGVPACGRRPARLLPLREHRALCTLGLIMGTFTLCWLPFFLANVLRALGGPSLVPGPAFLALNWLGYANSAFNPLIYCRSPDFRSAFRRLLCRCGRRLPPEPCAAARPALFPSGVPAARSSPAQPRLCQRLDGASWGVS
Sequence of 5-hydroxytryptamine receptor 2A (P28223 whole entry): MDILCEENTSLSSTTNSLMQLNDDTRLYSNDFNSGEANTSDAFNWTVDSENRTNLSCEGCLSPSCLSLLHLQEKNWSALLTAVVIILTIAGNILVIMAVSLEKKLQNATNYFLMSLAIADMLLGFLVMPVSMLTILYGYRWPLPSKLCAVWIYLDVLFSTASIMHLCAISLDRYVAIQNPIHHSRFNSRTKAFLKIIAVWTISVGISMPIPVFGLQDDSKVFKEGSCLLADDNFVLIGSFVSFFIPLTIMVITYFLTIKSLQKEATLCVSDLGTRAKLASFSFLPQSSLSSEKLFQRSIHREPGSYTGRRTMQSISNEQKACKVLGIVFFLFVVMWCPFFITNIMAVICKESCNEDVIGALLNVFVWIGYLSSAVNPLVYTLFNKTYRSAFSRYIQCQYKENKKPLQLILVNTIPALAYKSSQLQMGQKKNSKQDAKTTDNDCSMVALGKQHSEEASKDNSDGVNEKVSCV
T2 sequence (P21728 whole entry): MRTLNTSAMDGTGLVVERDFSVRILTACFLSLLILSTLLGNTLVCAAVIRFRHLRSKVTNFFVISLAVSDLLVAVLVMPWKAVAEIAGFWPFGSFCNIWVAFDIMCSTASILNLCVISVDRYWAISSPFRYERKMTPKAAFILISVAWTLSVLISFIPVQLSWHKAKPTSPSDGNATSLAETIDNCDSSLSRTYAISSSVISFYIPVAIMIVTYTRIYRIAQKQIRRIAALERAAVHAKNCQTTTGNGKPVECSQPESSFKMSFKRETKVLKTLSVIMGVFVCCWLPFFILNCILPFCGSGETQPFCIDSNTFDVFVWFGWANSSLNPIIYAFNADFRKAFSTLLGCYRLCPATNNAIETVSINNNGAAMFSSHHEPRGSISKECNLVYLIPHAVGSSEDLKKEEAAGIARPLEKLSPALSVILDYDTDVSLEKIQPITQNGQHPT
T6 sequence (P35367 whole entry): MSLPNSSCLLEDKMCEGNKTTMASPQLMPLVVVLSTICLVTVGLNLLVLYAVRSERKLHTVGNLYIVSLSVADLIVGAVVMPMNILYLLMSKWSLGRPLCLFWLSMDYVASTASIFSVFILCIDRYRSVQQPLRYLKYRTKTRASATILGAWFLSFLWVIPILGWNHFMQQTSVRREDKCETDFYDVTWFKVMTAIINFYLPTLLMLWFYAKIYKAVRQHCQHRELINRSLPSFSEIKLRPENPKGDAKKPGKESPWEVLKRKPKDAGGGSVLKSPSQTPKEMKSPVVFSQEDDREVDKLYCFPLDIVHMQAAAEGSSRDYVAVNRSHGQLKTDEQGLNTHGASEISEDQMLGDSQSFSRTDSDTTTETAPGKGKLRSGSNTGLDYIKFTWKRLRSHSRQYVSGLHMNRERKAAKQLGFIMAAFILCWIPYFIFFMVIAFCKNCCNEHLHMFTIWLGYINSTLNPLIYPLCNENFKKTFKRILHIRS
Sequence of Gamma-aminobutyric acid receptor subunit alpha-1/alpha-2/beta-2/gamma-2 (P14867 whole entry): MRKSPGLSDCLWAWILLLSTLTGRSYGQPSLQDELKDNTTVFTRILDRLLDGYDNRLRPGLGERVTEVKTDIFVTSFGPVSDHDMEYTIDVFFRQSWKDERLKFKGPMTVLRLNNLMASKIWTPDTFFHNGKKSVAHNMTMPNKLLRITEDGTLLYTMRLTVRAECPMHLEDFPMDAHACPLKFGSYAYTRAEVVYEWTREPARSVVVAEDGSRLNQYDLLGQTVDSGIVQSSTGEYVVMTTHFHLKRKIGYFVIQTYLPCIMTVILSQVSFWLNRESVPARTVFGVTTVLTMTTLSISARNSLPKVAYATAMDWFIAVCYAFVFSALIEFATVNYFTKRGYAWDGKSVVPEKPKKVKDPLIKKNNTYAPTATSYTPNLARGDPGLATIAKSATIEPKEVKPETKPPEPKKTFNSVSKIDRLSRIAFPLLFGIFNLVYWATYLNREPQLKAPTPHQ
Sequence of Gamma-aminobutyric acid receptor subunit alpha-1/alpha-2/beta-2/gamma-2 (P47870 whole entry): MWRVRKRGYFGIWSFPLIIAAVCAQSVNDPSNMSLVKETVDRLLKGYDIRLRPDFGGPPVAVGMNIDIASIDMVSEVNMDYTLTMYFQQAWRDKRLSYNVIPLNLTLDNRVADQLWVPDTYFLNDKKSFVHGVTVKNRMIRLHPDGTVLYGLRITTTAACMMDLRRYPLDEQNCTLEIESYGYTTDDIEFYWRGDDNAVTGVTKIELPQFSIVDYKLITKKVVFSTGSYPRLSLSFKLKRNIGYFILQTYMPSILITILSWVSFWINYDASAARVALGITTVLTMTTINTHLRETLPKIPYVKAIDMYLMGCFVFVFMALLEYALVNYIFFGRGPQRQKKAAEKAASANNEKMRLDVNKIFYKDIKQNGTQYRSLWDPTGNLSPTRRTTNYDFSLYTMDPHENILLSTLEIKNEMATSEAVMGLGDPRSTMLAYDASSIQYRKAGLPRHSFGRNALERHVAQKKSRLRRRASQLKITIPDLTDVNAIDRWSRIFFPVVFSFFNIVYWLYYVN
Sequence of Gamma-aminobutyric acid receptor subunit alpha-1/alpha-2/beta-2/gamma-2 (P18507 whole entry): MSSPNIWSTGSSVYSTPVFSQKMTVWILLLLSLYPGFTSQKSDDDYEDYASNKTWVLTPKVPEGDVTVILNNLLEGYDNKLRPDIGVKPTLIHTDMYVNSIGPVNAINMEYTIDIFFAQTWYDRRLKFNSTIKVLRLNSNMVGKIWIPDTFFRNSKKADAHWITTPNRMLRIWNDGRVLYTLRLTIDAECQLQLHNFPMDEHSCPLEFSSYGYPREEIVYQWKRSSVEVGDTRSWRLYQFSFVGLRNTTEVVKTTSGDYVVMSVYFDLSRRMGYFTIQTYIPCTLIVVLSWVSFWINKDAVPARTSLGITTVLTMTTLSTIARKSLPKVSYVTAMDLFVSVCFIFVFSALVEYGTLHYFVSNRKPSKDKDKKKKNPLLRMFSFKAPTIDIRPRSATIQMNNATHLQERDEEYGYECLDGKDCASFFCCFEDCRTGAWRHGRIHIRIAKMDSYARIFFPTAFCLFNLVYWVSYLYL
Sequence of Gamma-aminobutyric acid receptor subunit alpha-1/alpha-2/beta-2/gamma-2 (P47869 whole entry): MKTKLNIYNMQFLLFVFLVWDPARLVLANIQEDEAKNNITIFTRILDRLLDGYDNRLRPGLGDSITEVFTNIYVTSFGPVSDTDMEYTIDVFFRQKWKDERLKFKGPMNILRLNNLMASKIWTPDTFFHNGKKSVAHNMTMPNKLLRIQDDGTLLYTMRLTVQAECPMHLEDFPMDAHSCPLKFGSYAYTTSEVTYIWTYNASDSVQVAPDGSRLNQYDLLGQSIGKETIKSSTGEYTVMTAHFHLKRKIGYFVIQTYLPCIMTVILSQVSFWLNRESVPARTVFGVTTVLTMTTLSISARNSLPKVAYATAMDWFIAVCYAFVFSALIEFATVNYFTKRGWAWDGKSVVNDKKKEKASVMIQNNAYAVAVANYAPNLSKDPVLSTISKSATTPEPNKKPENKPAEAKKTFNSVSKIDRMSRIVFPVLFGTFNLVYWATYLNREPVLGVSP

| Compound | AC50 (Progesterone receptor) [µM] | AC50 [1] [µM] | AC50 [2] [µM] | AC50 (D(1A) dopamine receptor [3]) [µM] | AC50 [4] [µM] | AC50 [10] [µM] | further results |
| --- | --- | --- | --- | --- | --- | --- | --- |
| CCC(CC)(CC(=O)Nc1cccc(/C=C/c2nc(C3CCC3)cs2)c1)C(=O)O | > 30 |  |  |  |  |  |  |
| CCCCCNC(=N)N/N=C/c1c[nH]c2ccc(OC)cc12 [TEGASEROD] | > 30 | 6.08 | 0.0206 | 0.942 | 2.05 |  | AC50 [5]: 0.198 µM; AC50 [6]: 0.802 µM; AC50 [7]: 0.267 µM; AC50 [8]: 0.174 µM |
| O=[N+]([O-])O[C@@H]1CO[C@H]2[C@@H]1OC[C@@H]2O [ISOSORBIDE MONONITRATE] |  | > 30 | > 10 | > 10 | > 10 |  | AC50 [9]: > 10 µM; AC50 [7]: > 10 µM; AC50 [8]: > 10 µM |
| CN(C)CC/C=C1\c2ccccc2CSc2ccccc21 [DOTHIEPIN] |  |  |  |  | 3.2 |  |  |
| CC[C@@H](C(N)=O)N1CCCC1=O | > 30 |  |  |  |  | > 30 |  |
| Cc1oc(=O)oc1CN1CCN(c2cc3c(cc2F)c(=O)c(C(=O)O)c2n3C(C)S2)CC1 (stereo unspecified) [PRULIFLOXACIN] |  |  |  |  |  | > 30 | AC50 [11]: > 30 µM; AC50 (D(1A) dopamine receptor [12]): > 30 µM |
| COc1cc2nc(N3CCN(C(=O)c4ccco4)CC3)nc(N)c2cc1OC [PRAZOSIN] |  | > 30 | 2.57 | > 10 |  |  | AC50 [9]: 13.2 µM |
| NC1CCN(c2c(F)cc3c(=O)c(C(=O)O)cn(C4CC4)c3c2Cl)C1 (stereo unspecified) [CLINAFLOXACIN] |  |  |  |  |  | > 300 |  |
| COc1ccccc1N1CCN(CC(O)COc2cccc3ccccc23)CC1 (stereo unspecified) [NAFTOPIDIL] | > 30 |  | 0.047 |  | 0.543 |  | AC50 [11]: > 30 µM; AC50 (D(1A) dopamine receptor [12]): > 30 µM |
| Nc1ccncc1N [AMIFAMPRIDINE] |  |  |  |  |  |  | AC50 [11]: > 30 µM; AC50 (D(1A) dopamine receptor [12]): > 30 µM |
| CCOc1ccc(Cc2cc([C@@H]3O[C@H](CO)[C@@H](O)[C@H](O)[C@H]3O)ccc2Cl)cc1 [DAPAGLIFLOZIN] |  | > 30 | > 10 | > 10 | > 10 |  | AC50 [9]: > 10 µM |
| COc1ccc(C(=O)Nc2ccccc2CCC2CCCCN2C)cc1 (stereo unspecified) [ENCAINIDE] |  | > 30 | 3.66 | > 10 | > 10 |  | AC50 (Histamine H1 receptor [13]): > 30 µM; AC50 [9]: > 10 µM; AC50 [7]: > 10 µM; AC50 [8]: 0.103 µM; AC50 (Histamine H1 receptor [14]): > 30 µM |
| C=CCCCCCCCCC(=O)O [UNDECYLENIC ACID] |  |  |  |  |  |  | AC50 [11]: > 30 µM; AC50 (D(1A) dopamine receptor [12]): > 30 µM |
| O=[N+]([O-])c1cn2c(n1)OC[C@@H](OCc1ccc(OC(F)(F)F)cc1)C2 [PRETOMANID] |  | > 30 | > 10 | > 10 |  |  | AC50 [5]: > 10 µM; AC50 [6]: > 10 µM; AC50 [7]: > 10 µM; AC50 [8]: > 10 µM |
| CCOc1ccccc1OCC1CNCCO1 (stereo unspecified) [VILOXAZINE] |  | > 30 | 2.34 | > 10 | 11.2 |  | AC50 (Histamine H1 receptor [13]): > 30 µM; AC50 [5]: > 10 µM; AC50 [9]: > 10 µM; AC50 [6]: > 10 µM; AC50 [7]: > 10 µM; AC50 (Histamine H1 receptor [14]): > 30 µM |
| COC1=C(OC)C(=O)C(C/C=C(\C)CC/C=C(\C)CC/C=C(\C)CC/C=C(\C)CC/C=C(\C)CC/C=C(\C)CC/C=C(\C)CC/C=C(\C)CC/C=C(\C)CCC=C(C)C)=C(C)C1=O [UBIDECARENONE] |  |  |  |  |  | > 30 |  |
| CN(C)CCc1c[nH]c2ccc(C[C@H]3COC(=O)N3)cc12 [ZOLMITRIPTAN] | > 30 |  |  |  |  | > 30 | AC50 (Histamine H1 receptor [13]): > 30 µM; AC50 (Histamine H1 receptor [14]): > 30 µM |
| C=CCN1C[C@H](C(=O)N(CCCN(C)C)C(=O)NCC)C[C@@H]2c3cccc4[nH]cc(c34)C[C@H]21 [CABERGOLINE] | > 10 |  | 0.0086 |  | 3.62 | > 30 | AC50 [8]: 0.0077 µM |
| CCCC1O[C@@H]2C[C@H]3[C@@H]4CCC5=CC(=O)C=C[C@]5(C)[C@H]4[C@@H](O)C[C@]3(C)[C@]2(C(=O)CO)O1 (stereo partly specified) [BUDESONIDE] |  |  |  |  | > 10 |  |  |
| CN1CCN(C2=Nc3ccccc3Sc3ccc(Cl)cc32)CC1 [CLOTHIAPINE] |  |  |  |  |  | > 10 | AC50 (Histamine H1 receptor [13]): > 30 µM; AC50 (Histamine H1 receptor [14]): 0.63 µM |
| CN(C)CCC=C1c2ccccc2C=Cc2ccccc21 [CYCLOBENZAPRINE] |  | > 30 |  |  | 0.261 |  |  |
| Cc1cc(C)c(NC(=O)CN(CC(=O)O)CC(=O)O)c(C)c1Br [MEBROFENIN] |  |  |  |  |  | > 30 | AC50 [11]: > 30 µM; AC50 (D(1A) dopamine receptor [12]): > 30 µM |
| CC[C@H]1CN2CCc3cc(OC)c(OC)cc3[C@@H]2C[C@@H]1C[C@H]1NCCc2cc(OC)c(OC)cc21 [EMETINE] | > 30 |  |  |  | 6 | > 30 | AC50 (D(1A) dopamine receptor [12]): > 30 µM |
